From patent US20250326753A1, “DUAL CXCR4-BTK INHIBITORS” (X4 Pharmaceuticals, Inc., priority 2022, published 2025)
pIC50: −log10 of the molar value.

Assays:
[1] = target: T1, BTK (Bruton tyrosine kinase) (Homo sapiens, UniProt Q06187); assay: BTK screening assay (33PanQinase Activity Assay, radiometric); assay type: biochemical; conditions: Inhibition of BTK, radiometric 33PanQinase Activity Assay, 3 μM ATP, 10 concentrations in singlicate, top 10 μM; read-out: 33PanQinase ® Radiometric IC50
T1 construct: GST or His (the text leaves open which); purchased Reaction Biology Europe GmbH Lot 012,11; host or cells: Sf9 insect cells or E. coli (not resolved)
Description: Inhibition of BTK activity was evaluated using a radiometric protein kinase assay (33PanQinase® Activity Assay) to measure the activity of BTK (Bruton tyrosine kinase).
Kinase assays were performed in 96-well ScintiPlates™ from Perkin Elmer (Boston, MA, USA) in a 50 μL reaction volume. The reaction cocktail was pipetted in four steps in the following order: 10 μL of non-radioactive ATP solution (in H2O); 25 μL of assay buffer/[γ-^33P]-ATP mixture; 5 μL of compound test sample in 10% DMSO; 10 μL of enzyme/substrate mixture.
BTK kinase was expressed in Sf9 insect cells or in E. coli as recombinant GST-fusion proteins or His-tagged proteins, either as full-length or enzymatically active fragments from human cDNAs, and purified by either GSH-affinity chromatography or immobilized metal. Purity was examined by SDS-PAGE/Coomassie staining, and identity confirmed by mass spectroscopy.
The reaction cocktails were incubated at 30° C. for 60 minutes. The reaction was stopped with 50 μL of 2% (v/v) H3PO4, plates were aspirated and washed two times with 200 μL 0.9% (w/v) NaCl. Incorporation of ^33Pi (counting of “cpm”) was determined with a microplate scintillation counter (Microbeta, Wallac).
The median value of the counts in wells containing assay buffer without enzyme, and without test compound was defined as “low control.” This value reflects unspecific binding of radioactivity to the plate in the absence of a protein kinase but in the presence of the substrate. The median value of the counts in wells containing assay buffer without test compound was defined as the “high control,” i.e. full activity in the absence of any inhibitor. The difference between high and low control was taken as 100% activity. Residual activity (in %) was calculated using the following formula: Res. Activity (%)=100×[(cpm of compound-low control)/(high control-low control)].
The fitting method used was a least-squares fit.

[2] = target: T2, CXCR4 (Homo sapiens, UniProt P61073); assay: Chemokine (CXCL12-AF647) binding inhibition assay, Jurkat cells expressing CXCR4; conditions: CXCL12-AF647 25 ng/ml, read-out: IC50 CXCL-12 binding Jurkat
Description: Jurkat cells expressing CXCR4 were washed once with assay buffer (Hanks' balanced salt solution with 20 mM HEPES buffer and 0.2% bovine serum albumin, pH 7.4) and then incubated for 15 min at room temperature with the test compounds diluted in assay buffer at dose-dependent concentrations. Subsequently, CXCL12-AF647 (25 ng/ml) was added to the compound-incubated cells. The cells were incubated for 30 min at room temperature. Thereafter, the cells were washed twice in assay buffer, fixed in 1% paraformaldehyde in PBS, and analyzed on the FL4 channel of a FACSCalibur flow cytometer equipped with a 635-nm red diode laser (Becton Dickinson, San Jose, CA, USA).
The percentages of inhibition of CXCL12-AF647 binding were calculated according to the formula: [1−((MFI−MFINC)/(MFIPC−MFINC))]×100 where MFI is the mean fluorescence intensity of the cells incubated with CXCL 12-AF647 in the presence of the inhibitor, MFINC is the mean fluorescence intensity measured in the negative control (i.e., autofluorescence of unlabeled cells), and MFIPC is the mean fluorescence intensity of the positive control (i.e., cells exposed to CXCL12-AF647 alone).

[3] = target: T2, CXCR4; assay: Intracellular CXCL-12-induced calcium mobilization assay (FLIPR), U87.CXCR4 cells; assay type: cell-based; parameters: expressed in transfected cells; host or cells: U87 (U87.CXCR4); conditions: CXCL-12 25-50 ng/ml, read-out: IC50 CXCL-12 Ca2+ flux U87.CXCR4+
Description: Intracellular calcium mobilization induced by chemokines or chemokine-derived peptides were evaluated using a calcium responsive fluorescent probe and a FLIPR system. The CXCR-4 transfected U87 cell line (U87.CXCR4) cells were seeded in gelatine-coated black-wall 96-well plates at 20,000 cells per well and incubated for 12 hours. Cells were then loaded with the fluorescent calcium probe Fluo-2 acetoxymethyl at 4 μM final concentration in assay buffer (Hanks' balanced salt solution with 20 mM HEPES buffer and 0.2% bovine serum albumin, pH 7.4) for 45 min at 37° C. The intracellular calcium mobilization induced by the CXCL-12 (25-50 ng/ml) was then measured at 37° C. by monitoring the fluorescence as a function of time in all the wells simultaneously using a fluorometric imaging plate reader (FLIPR Tetra, Molecular Devices).

T1 sequence (Q06187 whole entry): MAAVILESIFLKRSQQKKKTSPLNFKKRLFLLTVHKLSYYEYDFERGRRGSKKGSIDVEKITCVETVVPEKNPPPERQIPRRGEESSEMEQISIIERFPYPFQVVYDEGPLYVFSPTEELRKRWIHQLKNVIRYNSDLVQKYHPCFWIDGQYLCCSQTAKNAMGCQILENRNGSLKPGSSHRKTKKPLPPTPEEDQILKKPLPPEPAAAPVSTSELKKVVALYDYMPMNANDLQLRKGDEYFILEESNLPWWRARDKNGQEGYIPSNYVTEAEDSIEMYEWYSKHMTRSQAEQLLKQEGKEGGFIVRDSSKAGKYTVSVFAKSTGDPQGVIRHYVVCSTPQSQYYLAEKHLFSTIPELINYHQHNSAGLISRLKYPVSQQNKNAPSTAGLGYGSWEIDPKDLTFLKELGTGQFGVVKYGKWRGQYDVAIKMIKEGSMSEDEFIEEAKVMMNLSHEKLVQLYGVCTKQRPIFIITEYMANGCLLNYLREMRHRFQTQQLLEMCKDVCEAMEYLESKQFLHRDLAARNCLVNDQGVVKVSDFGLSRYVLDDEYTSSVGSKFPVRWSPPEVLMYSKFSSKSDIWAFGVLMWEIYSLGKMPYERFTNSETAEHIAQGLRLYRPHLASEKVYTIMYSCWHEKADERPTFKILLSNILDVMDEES
T2 sequence (P61073 whole entry): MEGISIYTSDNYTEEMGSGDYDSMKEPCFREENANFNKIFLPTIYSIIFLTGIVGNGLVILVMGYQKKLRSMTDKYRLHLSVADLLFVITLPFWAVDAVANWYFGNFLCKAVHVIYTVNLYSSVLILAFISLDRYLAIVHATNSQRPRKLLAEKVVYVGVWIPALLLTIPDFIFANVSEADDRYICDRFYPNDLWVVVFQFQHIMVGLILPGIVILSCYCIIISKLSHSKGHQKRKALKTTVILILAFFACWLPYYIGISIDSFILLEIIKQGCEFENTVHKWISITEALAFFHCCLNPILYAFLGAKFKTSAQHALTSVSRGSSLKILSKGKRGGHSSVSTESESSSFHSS

Row | Structure (SMILES) | pIC50 [1] | pIC50 [2] | pIC50 [3]
1 | Cc1cc(-c2ncnc3[nH]c(C(=O)NCCCN4[C@@H](c5ncccc5C)CCC[C@H]4c4ncccc4C)cc23)ccc1CNC(=O)c1ccc(C(F)(F)F)cc1 [Compound I-40] | 7.00 to 9.00 | 7.00 to 9.00 | < 5.60
2 | Cc1cccnc1[C@H]1CCC[C@@H](c2ncccc2C)N1CCNC1CN(C(=O)c2ccc(-c3cc4c(-c5cccc(NC(=O)c6ccc(C(F)(F)F)cc6)c5C)ncnc4[nH]3)cc2)C1 [Compound I-37] | 6.00 to 7.00 | 7.00 to 9.00 | 7.00 to 9.00
3 | Cc1cccnc1[C@H]1CCC[C@@H](c2ncccc2C)N1CCNC1CN(C(=O)c2ccc(-c3cc4c(-c5cccc(NC(=O)c6ccc(C(C)C)cc6)c5C)ncnc4[nH]3)cc2)C1 [Compound I-35] | 7.00 to 9.00 | 7.00 to 9.00 | 7.00 to 9.00
4 | Cc1cccnc1[C@H]1CCC[C@@H](c2ncccc2C)N1CCn1cc(-c2ccc(Oc3ccccc3)cc2)c2c(N)ncnc21 [Compound I-63] | < 5.60 | 5.60 to 6.00 | < 5.60
5 | Cc1cc(-c2ccnc(Nc3cnn(CCN4[C@@H](c5ncccc5C)CCC[C@H]4c4ncccc4C)c3)n2)ccc1CNC(=O)N1CC(OC(C)(C)C)C1 [Compound I-42] | 7.00 to 9.00 | 7.00 to 9.00 | 6.00 to 7.00
6 | COC1CN(C(=O)NCc2ccc(-c3ccnc(Nc4cnn(CCN5[C@@H](c6ncccc6C)CCC[C@H]5c5ncccc5C)c4)n3)cc2C)C1 [Compound I-41] | 7.00 to 9.00 | 7.00 to 9.00 | < 5.60
7 | Cc1cccnc1[C@H]1CC(Cn2cc(-c3ccc(Oc4ccccc4)cc3)c3c(N)ncnc32)C[C@@H](c2ncccc2C)N1CCCCN (stereo partly drawn) [Compound I-61] | < 5.60 | < 5.60 | < 5.60
8 | Cc1cccnc1[C@H]1CCC[C@@H](c2ncccc2C)N1CCN1CCN(C(=O)c2ccc(-c3cc4c(-c5cccc(NC(=O)c6cccc(C(C)C)c6)c5C)ncnc4[nH]3)cc2)CC1 [Compound I-33] | 6.00 to 7.00 | 7.00 to 9.00 | 6.00 to 7.00
9 | Cc1cc(-c2ncnc3[nH]c(C(=O)NCCCN4[C@@H](c5ncccc5C)CCC[C@H]4c4ncccc4C)cc23)ccc1CNC(=O)c1ccc(C(C)C)cc1 [Compound I-38] | 7.00 to 9.00 | 7.00 to 9.00 | 6.00 to 7.00
10 | Cc1cc(-c2ncnc3[nH]c(S(=O)(=O)NCCCN4[C@@H](c5ncccc5C)CCC[C@H]4c4ncccc4C)cc23)ccc1CNC(=O)c1ccc(C(C)(C)C)cc1 [Compound I-27] | 6.00 to 7.00 | 6.00 to 7.00 | < 5.60
11 | Cc1cccnc1[C@H]1CCC[C@@H](c2ncccc2C)N1CCCN1CCN(C(=O)c2ccc(-c3cc4c(-c5cccc(NC(=O)c6ccccc6)c5C)ncnc4[nH]3)cc2)CC1 [Compound I-30] | 6.00 to 7.00 | 7.00 to 9.00 | 7.00 to 9.00
12 | Cc1cccnc1[C@H]1CCC[C@@H](c2ncccc2C)N1CCN1CCN(C(=O)c2ccc(-c3cc4c(-c5cccc(NC(=O)c6ccc(C(C)C)cc6)c5C)ncnc4[nH]3)cc2)CC1 [Compound I-32] | 7.00 to 9.00 | 7.00 to 9.00 | < 5.60
13 | Cc1cc(-c2ncnc3[nH]c(C(=O)NCCCCN4[C@@H](c5ncccc5C)CCC[C@H]4c4ncccc4C)cc23)ccc1CNC(=O)c1ccc(C(F)(F)F)cc1 [Compound I-46] | 7.00 to 9.00 | 7.00 to 9.00 | 6.00 to 7.00
14 | Cc1cccnc1[C@H]1CCC[C@@H](c2ncccc2C)N1CCCCN1CCN(C(=O)c2ccc(-c3cc4c(-c5cccc(NC(=O)c6ccccc6)c5C)ncnc4[nH]3)cc2)CC1 [Compound I-31] | 6.00 to 7.00 | 7.00 to 9.00 | 7.00 to 9.00

Other lines, results leading:

Row | pIC50 [1] | pIC50 [2] | pIC50 [3] | Structure (SMILES)
15 | < 5.60 | < 5.60 | < 5.60 | Cc1cccnc1[C@H]1CCC[C@@H](c2ncccc2C)N1CCCn1cc(-c2ccc(Oc3ccccc3)cc2)c2c(N)ncnc21 [Compound I-64]
16 | 5.60 to 6.00 | 7.00 to 9.00 | 6.00 to 7.00 | Cc1cccnc1[C@H]1CCC[C@@H](c2ncccc2C)N1CCNC1CN(C(=O)c2ccc(-c3cc4c(-c5cccc(NC(=O)c6cccc(C(C)C)c6)c5C)ncnc4[nH]3)cc2)C1 [Compound I-36]
17 | 6.00 to 7.00 | 7.00 to 9.00 | < 5.60 | Cc1cc(-c2ncnc3[nH]c(C(=O)NCCCN4[C@@H](c5ncccc5C)CCC[C@H]4c4ncccc4C)cc23)ccc1CNC(=O)c1cccc(C(C)C)c1 [Compound I-39]
18 | 7.00 to 9.00 | 7.00 to 9.00 | 6.00 to 7.00 | Cc1cccnc1[C@H]1CC(C(=O)OC[C@@H]2CC[C@@H](Nc3ncnc4[nH]cc(C(=O)c5ccc(Oc6ccccc6)cc5Cl)c34)CO2)C[C@@H](c2ncccc2C)N1CCCCN (stereo partly drawn) [Compound I-22]
19 | 7.00 to 9.00 | 7.00 to 9.00 | 6.00 to 7.00 | Cc1cc(-c2ncnc3[nH]c(C(=O)NCCCCN4[C@@H](c5ncccc5C)CCC[C@H]4c4ncccc4C)cc23)ccc1CNC(=O)c1ccc(C(C)C)cc1 [Compound I-44]
20 | 7.00 to 9.00 | 7.00 to 9.00 | 5.60 to 6.00 | Cc1cc(-c2ncnc3[nH]c(C(=O)NCCCCN4[C@@H](c5ncccc5C)CCC[C@H]4c4ncccc4C)cc23)ccc1CNC(=O)c1cccc(C(C)C)c1 [Compound I-45]
21 | 5.60 to 6.00 | 6.00 to 7.00 | < 5.60 | Cc1cc(-c2ncnc3[nH]c(S(=O)(=O)NCCCCN4[C@@H](c5ncccc5C)CCC[C@H]4c4ncccc4C)cc23)ccc1CNC(=O)c1ccc(C(C)(C)C)cc1 [Compound I-28]
22 | 7.00 to 9.00 | 6.00 to 7.00 | < 5.60 | Cc1cccnc1[C@H]1CCC[C@@H](c2ncccc2C)N1CCCNC(=O)[C@@H]1CC[C@@H](Nc2ncnc3[nH]cc(C(=O)c4ccc(Oc5ccccc5)cc4Cl)c23)CO1 [Compound I-20]
23 | 6.00 to 7.00 | 7.00 to 9.00 | 6.00 to 7.00 | Cc1cccnc1[C@H]1CCC[C@@H](c2ncccc2C)N1CCN1CCN(C(=O)c2ccc(-c3cc4c(-c5cccc(NC(=O)c6ccc(C(F)(F)F)cc6)c5C)ncnc4[nH]3)cc2)CC1 [Compound I-34]
24 | 7.00 to 9.00 | 7.00 to 9.00 | 6.00 to 7.00 | Cc1cc(-c2ccnc(Nc3cnn(CCN4[C@@H](c5ncccc5C)CCC[C@H]4c4ncccc4C)c3)n2)ccc1CNC(=O)N1CC(OC(F)(F)F)C1 [Compound I-43]
25 | 7.00 to 9.00 | 7.00 to 9.00 | 6.00 to 7.00 | Cc1cccnc1[C@H]1CC(COC(=O)[C@@H]2CC[C@@H](Nc3ncnc4[nH]cc(C(=O)c5ccc(Oc6ccccc6)cc5Cl)c34)CO2)C[C@@H](c2ncccc2C)N1CCCCN (stereo partly drawn) [Compound I-21]
26 | 5.60 to 6.00 | < 5.60 | < 5.60 | Cc1cc(-c2ncnc3[nH]c(S(=O)(=O)NCCN4[C@@H](c5ncccc5C)CCC[C@H]4c4ncccc4C)cc23)ccc1CNC(=O)c1ccc(C(C)(C)C)cc1 [Compound I-26]
27 | 7.00 to 9.00 | < 5.60 | < 5.60 | Cc1cc(-c2ccnc(Nc3cnn(CCN4CCCCC4c4ncccc4C)c3)n2)ccc1CNC(=O)N1CC(OC(C)C)C1 (stereo not drawn) [Compound I-66]
